Source: patent US5789447A, “Nitric oxide releasing compounds as protective agents in ischemia reperfusion injury” (priority 1995, dated 1998)

Legend:
[1] = test system: Chinese hamster V79 lung fibroblasts; assay: V79 clonogenic survival, hypoxanthine/xanthine oxidase (HX/XO) cytotoxicity; details: 1 mM
Description: Chinese hamster V79 lung fibroblasts were cultured in F12 medium supplemented with 10% fetal calf serum and antibiotics. Cell survival was assessed by clonogenic assay with 85-95% plating efficiency. Stock cultures of exponentially growing cells were trypsinized, rinsed, and plated (7×10^5 cells/dish) into a number of 100 cm^2 petri dishes and incubated 16 hr at 37° C. prior to experimental protocols.
It has been shown that exposure of V79 cells to hydrogen peroxide results in dose-dependent cytotoxicity (Mitchell et al., supra).
HX and XO were purchased from Boehringer Co. (Indianapolis, Ind.). Nitrite, diethylamine, sulfinamide, diethylenetriaminepentaacetic acid (DETAPAC) and N-(1-naphthyl)ethylenediaminedihydrogenchloride (NEDD) were purchased from Aldrich (Milwaukee, Wis.). Cytosine-β-D-arabinofuranoside and ferricytochrome c were purchased from Sigma (St. Louis, Mo.). DEA/NO and SPER/NO were synthesized as previously described (Maragos et al., (1991), supra).
Exponentially growing cultures of Chinese hamster V79 fibroblasts were exposed to either HX/XO (final concentration of HX was 0.5 mM; 0.08 units/ml XO were used) for various amounts of time (FIG. 1A) or to various concentrations of hydrogen peroxide for one hour (FIG. 1B). […] Additionally, 1 mM DEA/NO was added to medium in the absence of cells, incubated at 37° C. for 1 hr or 16 hrs, and then added just prior to the addition of hydrogen peroxide to evaluate the effects of DEA/NO which had released NO. After treatment, cell monolayers were rinsed twice with phosphate-buffered saline (PBS), trypsinized, counted and plated in triplicate for macroscopic colony formation. Each dose determination was plated in triplicate and experiments were repeated a minimum of two times. Plates were incubated for 7 days, after which colonies were fixed with methanol/acetic acid (3:1), stained with crystal violet, and counted. Colonies containing more than 50 cells were scored.

rat mesenteric venules = assay: Venular diameter, RBC velocity and wall shear rate after ischemia reperfusion; format: in vivo; details: 100 μM in superfusate
Description: (§1) Male Sprague-Dawley rats weighing 200-250 g apiece were maintained on a purified laboratory diet and fasted for 24 hours prior to each experiment. The animals were initially anesthetized with pentobarbital (65 mg/kg body weight) and then a tracheotomy was performed to facilitate breathing during subsequent experimentation. The right carotid artery was cannulated and system arterial pressure was measured with a Statham P23A pressure transducer (Oxnard, Calif.) connected to the carotid artery cannula. Systemic blood pressure and heart rate were continuously recorder with a Grass physiologic recorded (Grass Instruments).
(§2) Rats were placed in a supine position on an adjustable plexiglass microscope stage and the mesentery was prepared for microscopic observation as described previously (Asako et al., Gastroenterology, 103, 146-152 (1992); Kurose et al., Circ. Res., in press (1993)). Briefly, the mesentery was draped over a non-fluorescent coverslip that allowed for observation of a 2 cm^2 segment of tissue. The exposed bowel wall was covered with Saran Wrap (Dow Chemical Co.) and the mesentery was superfused with bicarbonate-buffered saline (pH 7.4, 37° C.) that was bubbled with a mixture of 5% CO2 and […].
(§3) An inverted microscope (TMD-25, Diaphoto, Nikon, Tokyo, Japan) with a 40x objective lens (Fluor, Nikon) was used to observe the mesenteric microcirculation. The mesentery was transilluminated with a 12 V-100 W direct current-stabilized light source. A video camera (VK-C150, Hitachi, Ibaragi, Japan) mounted on the microscope projected the image onto a color monitor (PVM-2030, Sony, Tokyo, Japan) and the images were recorded using a videocassette record (NV8950, Panasonic, Tokyo, Japan). A video time-date generator (WJ810, Panasonic) projected the time, date and stopwatch function onto the monitor.
(§4) Single unbranched venules with diameters ranging between 25 and 35 μm and length greater than 150 μm were selected for study. Venular diameter (DV) was measured either on- or off-line using a video caliper (Microcirculation Research Institute, Texas A&M University, College Station, Tex.). Red blood cell centerline velocity (VRBC) was measured in venules using an optical Dopper velocimeter (Microcirculation Research Institute, Texas A&M University, College Station, Tex.). The velocimeter was calibrated against a rotating glass disk coated with red blood cells. Venular blood flow was calculated from the product of mean red blood cell velocity (Vmean =centerline velocity/1.6; Davis, Microvasc. Res., 34, 223-230 (1987)) and microvascular cross-sectional area, assuming cylindrical geometry. Wall shear rate (γ) was calculated based on the Newtonian definition γ=8(Vmean /D).
After all parameters measured on-line were in a steady state, images from the mesenteric preparation were recorded on videotape for 10 min. […] The mesentery was made ischemic for zero (sham ischemia) or 20 min. After the ischemic period, the ligation was gently removed. In some experiments, either sodium nitroprusside (SNP, 100 μM, Sigma Chemical), spermine-NO (SpNO, 100 μM), SIN-1 (100 μM), spermine (SP, 100 μM, Sigma Chemical), or NG-nitro-L-arginine methyl ester (L-NAME, 100 μM, Sigma Chemical) was added to the superfusate and the same protocol was employed. Spermine-NO and SIN-1, which are NO donors, were obtained from the National Institutes of Health, Bethesda, Md. […]

leukocytes = assay: Leukocyte adherence and emigration after ischemia reperfusion (mesenteric venules); format: in vivo, rat; details: 20 min ischemia, 10 and 30 min reperfusion; 100 μM; FIG. 4B
Description: as §1, §2, §3, §4
The number of adherent leukocytes was determined off-line during playback of videotape images. A leukocyte was considered to be adherent to venular endothelium if it remained stationary for a period equal to or greater than 30 seconds (Granger et al., Am. J. Physiol., 257, G683-G688 (1989)). Adherent cells were expressed as the number per 100 μm length of venule. The number of emigrated leukocytes was also determined off-line during playback of videotape images. Any interstitial leukocytes present in the mesentery at the onset of the experiment were subtracted from the total number of leukocytes that accumulated during the course of the experiment. Leukocyte emigration was expressed as the number per field of view surrounding the venule. Platelet-leukocyte aggregates, which were visible within postcapillary venules, were quantitated and expressed as the number of aggregates crossing a fixed point within the venule over a 5 min period. Mast cells in the microvascular beds of the rat mesenteries were visualized by using 0.1% toluidine blue. The number of normal and degranulated mast cells was determined and the percentage of degranulated mast cells was calculated.

mesenteric venules = assay: Albumin leakage across mesenteric venules after ischemia reperfusion; format: in vivo, rat; details: 10 min and 30 min after reperfusion; 100 μM; FIG. 4C
Description: as §1, §2, §3
as §4, with “The velocimeter was calibrated against a rotating glass disk coated with red blood cells.” left out
After all parameters measured on-line were in a steady state, images from the mesenteric preparation were recorded on videotape for 10 min. […]

[2] = test system: platelet-leukocyte aggregates; assay: Platelet-leukocyte aggregates after ischemia reperfusion; format: in vivo, rat; details: 20 min ischemia, 30 min reperfusion; 100 μM; FIG. 6
Description: as §1, with “Instruments). […]” for “Instruments).”
(§5) An inverted microscope (TMD-25, Diaphoto, Nikon, Tokyo, Japan) with a 40x objective lens (Fluor, Nikon) was used to observe the mesenteric microcirculation. […] A video camera (VK-C150, Hitachi, Ibaragi, Japan) mounted on the microscope projected the image onto a color monitor (PVM-2030, Sony, Tokyo, Japan) and the images were recorded using a videocassette record (NV8950, Panasonic, Tokyo, Japan). […]
Single unbranched venules with diameters ranging between 25 and 35 μm and length greater than 150 μm were selected for study. Venular diameter (DV) was measured either on- or off-line using a video caliper (Microcirculation Research Institute, Texas A&M University, College Station, Tex.). […] Wall shear rate (γ) was calculated based on the Newtonian definition γ=8(Vmean /D). […]

mast cells = assay: Degranulation of microvascular mast cells after ischemia reperfusion; format: in vivo, rat; details: 20 min ischemia, 30 min reperfusion; 100 μM; FIG. 7
Description: as §1, §2, §5
as §4, with “The velocimeter was calibrated against a rotating glass disk coated with red blood cells.” left out
The number of adherent leukocytes was determined off-line during playback of videotape images. […] Adherent cells were expressed as the number per 100 μm length of venule. The number of emigrated leukocytes was also determined off-line during playback of videotape images. […] Leukocyte emigration was expressed as the number per field of view surrounding the venule. […]

intestinal mucosa = assay: Intestinal blood to lumen 51Cr-EDTA clearance (mucosal permeability) in cat small intestine transplant; format: in vivo, cats
small intestine = assay: Water absorption in cat small intestine transplant; format: in vivo, cats; details: during 120 min of reperfusion; 0.1 mmol; vs untreated; FIG. 10
microvasculature [3] = assay: Lymph flow and lymph protein clearance in cat small intestine transplant; format: in vivo, cats
microvasculature [4] = assay: Capillary pressure and vascular resistance in cat small intestine transplant; format: in vivo, cats; details: FIG. 13
[5] = NO release rate / half-life; format: physicochemical; details: vs DEA/NO

NCCCNCCCCN(CCCN)/[N+]([O-])=N/O [SpNO, spermine-NO]
protection against HX/XO-induced cell killing [1]: protected V79 cells against HX/XO induced cytotoxicity but to a lesser extent than DEA/NO | reversal of decrease in RBC velocity after reperfusion (rat mesenteric venules; in words): reversed the decreases | reversal of decrease in wall shear rate after reperfusion (rat mesenteric venules; in words): reversed the decreases | RBC velocity (rat mesenteric venules; 30 min after reperfusion): 3.06 ± 0.28 mm/sec | Venular diameter (rat mesenteric venules; 30 min after reperfusion): 31.8 ± 2.1 μm | Wall Shear Rate (rat mesenteric venules; 30 min after reperfusion): 480 ± 27 s⁻¹ | reduction of number of emigrated leukocytes (leukocytes): 64-71% | attenuation of albumin leakage (mesenteric venules): 70% | platelet-leukocyte aggregate formation [2]: reduced | degranulation of microvascular mast cells (mast cells): significantly inhibited | mucosal permeability (51Cr-EDTA clearance) (intestinal mucosa; 6-hr hypothermic ischemia, 120 min reperfusion, FIG. 9): decreased | 51Cr-EDTA clearance (intestinal mucosa; at 75 and 90 min, 0.1 mmol luminal perfusate): statistically significant decrease | water absorption (small intestine): increased significantly | lymph flow (microvasculature [3]; FIG. 11): Increased lymph flow | lymph protein clearance (microvasculature [3]; FIG. 12): increased lymph protein clearance | capillary pressure (microvasculature [4]): Significant elevation | NO release, times slower than DEA/NO [5]: 40 times
